In ChEMBL document CHEMBL3887000, “Inhibitors of the renal outer medullary potassium channel” (2016):

Key:
[1] = molecular target: T1, ATP-sensitive inward rectifier potassium channel 1 (Homo sapiens, UniProt P48048); experiment: Thallium Flux Assay: The ROMK channel functional thallium flux assay is performed in 384 wells, using the FLIPR-Tetra instrument. HEK-hKir1.1 cells are seeded in Poly-D-Lysine microplates and kept in a 37° C.-10% CO2 incubator overnight. On the day of the experiment, the growth media is replaced with the FluxOR reagent loading buffer and incubated, protected from light, at ambient temperature (23-25° C.) for 90 min. The loading buffer is replaced with assay buffer test compound followed by 30 min incubation at ambient temperature, where the Thallium/Potassium stimulant is added to the microplate. Step Protocol 1. Seed HEK-hKir1.1 cells (50 ul at 20,000 cells/well) in 384-well PDL coated Microplates 2. Allow cells to adhere overnight in humidified 37° C./10% CO2 incubator 3. Completely remove cell growth media from microplate and replace with 25 ul loading buffer 4. Incubate Microplate at room temperature, protected form light, for 90 min 5. Remove loading buffer and replace with 25 ul 1x Assay Buffer±test compound.Â 6. Incubate microplate at room temperature, protected form light, for 30 min 7. At FLIPR-Tetra 384: Add stimulant (Thallium/Potassium) solution to microplate and monitor fluorescence. Excitation=400 nm, Emission=460 & 580 nm. Collect data for 10 min.Â Data Calculation: The fluorescence intensity of wells containing 3 uM of a standard control ROMK inhibitor of the present invention is used to define the ROMK-sensitive component of thallium flux. Fluorescence in the presence of test compounds is normalized to control values to provide % fluorescence change.
T1 sequence (P48048 whole entry): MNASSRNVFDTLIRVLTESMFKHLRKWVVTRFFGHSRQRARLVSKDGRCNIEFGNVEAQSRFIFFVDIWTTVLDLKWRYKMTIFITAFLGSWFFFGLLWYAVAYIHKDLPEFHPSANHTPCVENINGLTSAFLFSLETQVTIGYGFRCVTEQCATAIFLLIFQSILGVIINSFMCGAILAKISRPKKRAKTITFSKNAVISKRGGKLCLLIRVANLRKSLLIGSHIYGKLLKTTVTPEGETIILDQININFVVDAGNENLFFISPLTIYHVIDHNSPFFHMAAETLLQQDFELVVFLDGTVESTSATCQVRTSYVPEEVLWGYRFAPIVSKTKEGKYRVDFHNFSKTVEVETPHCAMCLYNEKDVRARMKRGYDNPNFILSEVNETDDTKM

[2] = molecular target: T1, ATP-sensitive inward rectifier potassium channel 1; experiment: Electrophysiology Assay: Block of Kir1.1 (ROMK1) currents was examined by whole cell voltage clamp (Hamill et. al. Pfluegers Archives 391:85-100 (1981)) using the IonWorks Quattro automated electrophysiology platform (Molecular Devices, Sunnyvale, Calif.). Chinese hamster ovary cells stably expressing Kir1.1 channels were maintained in T-75 flasks in cell culture media in a humidified 10% CO2 incubator at 37° C. Prior to an experiment, Kir1.1 expression was induced by overnight incubation with 1 mM sodium butyrate. On the day of the experiment, cells were dissociated with 2.5 ml of Versene (Invitrogen 15040-066) for approximately 6 minutes at 37° C. and suspended in 10 ml of bath solution containing (in mM): 150 NaCl, 10 KCl, 2.7 CaCl2, 0.5 MgCl2, 5 HEPES, pH 7.4. After centrifugation, the cell pellet was resuspended in approximately 4.0 ml of bath solution and placed in the IonWorks instrument. The intracellular solution consisted of (in mM): 80 K gluconate, 40 KCl, 20 KF, 3.2 MgCl2, 3 EGTA, 5 Hepes, pH 7.4. Electrical access to the cytoplasm was achieved by perforation in 0.13 mg/ml amphotericin B for 4 minutes. Amphotericin B (Sigma A-4888) was prepared as a 40 mg/ml solution in DMSO.; assay type: cell-based

SMILES	IC50 [1] [nM]	IC50 [2] [nM]
Cc1c([C@@H](O)CN2CCC3(CCCN3C[C@H](O)c3ccc4c(c3C)COC4=O)C2)ccc2c1COC2=O (stereo partly specified)	91	11
Cc1c([C@@H](O)CN2C(C)CC3CN(CC(O)c4ccc(C#N)cn4)CC32)ccc2c1COC2=O (single isomer, unassigned)	–	39
Cc1c([C@@H](O)CN2CCC3CN(S(=O)(=O)c4ccc(C#N)cc4)CC32)ccc2c1COC2=O (single isomer, unassigned)	402	62
Cc1c([C@@H](O)CN2CCC3(CC2)CCN(C[C@H](O)c2ccc4c(c2C)COC4=O)C3)ccc2c1COC2=O	1210	–
